Source: patent publication US20120244567A1, “HUMAN EMBRYONIC STEM CELLS FOR HIGH THROUGHOUT DRUG SCREENING” (BUCK INSTITUTE FOR RESEARCH ON AGING, priority 2009, published 2012)
Where a name gives a salt, the structure may show the parent alone.

Test system: NSCs
Conditions: enriched in treated NSCs
Procedure: RNAs isolated from NSCs and neurons with and without drug treatments were hybridized to Illumina HumanRef-8 BeadChip (Illumina, Inc., San Diego, Calif., performed by Microarray core facility at the Burnham Institute for Medical Research). The Illumina array data were normalized by the quantile method, and then transformed log 2 ratio values for a zero mean for expression values of each gene across all samples. The statistical and bioinformatics analyses were conducted by using R and the bioconductor package (www.bioconductor.org). The gene set enrichment analysis was conducted using the GSEA software (www.broad.mit.edu/gsea).
The comparative results are then measured by a non-parametric, running sum statistic termed the enrichment score. The enrichment score significance is assessed by 1,000 permutation tests to compute the enrichment p-value.

`CCCCc1oc2ccccc2c1C(=O)c1cc(I)c(OCCN(CC)CC)c(I)c1` [Amiodarone Hydrochloride] was tested, and the “Nes: Endopeptidase Activity” value was 1.466, the “Nes: Enzyme Binding” value was 0.9684 and the “Nes: Enzyme Inhibitor Activity” value was 1.362. The “Nes: Enzyme Regulator Activity” value was 1.305, the “Nes: Exonuclease Activity” value was 1.423 and the “Nes: Gated Channel Activity” value was 0.8726. The “Nes: General Rna Polymerase Ii Transcription Factor Activity” value was 0.772, the “Nes: Growth Factor Binding” value was 1.135 and the “Nes: Gtpase Activator Activity” value was 1.186. For the same molecule, the “Nes: Gtpase Binding” value was 0.9586, the “Nes: Gtpase Regulator Activity” value was 1.412 and the “Nes: Guanyl Nucleotide Exchange Factor Activity” value was 1.287. The “Nes: Hematopoietin Interferon Class D200 Domain Cytokine Receptor Activity” value was 0.7947, the “Nes: Hormone Receptor Binding” value was 0.621 and the “Nes: Hydro Lyase Activity” value was 0.5564. For the same molecule, the “Nes: Hydrolase Activity Acting On Ester Bonds” value was 1.181, the “Nes: Hydrolase Activity Acting On Glycosyl Bonds” value was 1.049 and the “Nes: Hydrolase Activity Hydrolyzing O Glycosyl Compounds” value was 1.219. For the same molecule, the “Nes: Inorganic Cation Transmembrane Transporter Activity” value was 0.6802, the “Nes: Ion Channel Activity” value was 1.255 and the “Nes: Ion Transmembrane Transporter Activity” value was 1.185. The “Nes: Isomerase Activity” value was 1.154, the “Nes: Kinase Binding” value was 0.6301 and the “Nes: Ligase Activity” value was 0.4673. For the same molecule, the “Nes: Ligase Activity Forming Carbon Nitrogen Bonds” value was 0.6937, the “Nes: Lyase Activity” value was 1.018 and the “Nes: Metal Ion Transmembrane Transporter Activity” value was 1.036. For the same molecule, the “Nes: Methyltransferase Activity” value was 0.9044, the “Nes: Molecular Adaptor Activity” value was 1.189 and the “Nes: Monovalent Inorganic Cation Transmembrane Transporter Activity” value was 0.7857. The “Nes: Motor Activity” value was 1.105, the “Nes: Mrna Binding” value was 1.006 and the “Nes: Nuclease Activity” value was 0.9393. The “Nes: Nucleotide Binding” value was 0.8932, the “Nes: Oxidoreductase Activity” value was 0.9865 and the “Nes: Oxidoreductase Activity Acting On Ch Oh Group Of Donors” value was 0.8656. The “Nes: Oxidoreductase Activity Go 0016705” value was 1.545, the “Nes: Peptidase Activity” value was 1.4 and the “Nes: Phosphatase Regulator Activity” value was 0.456. For the same molecule, the “Nes: Phosphoprotein Phosphatase Activity” value was 1.51, the “Nes: Phosphoric Diester Hydrolase Activity” value was 1.244 and the “Nes: Phosphoric Ester Hydrolase Activity” value was 1.31. For the same molecule, the “Nes: Phosphoric Monoester Hydrolase Activity” value was 1.31, the “Nes: Protease Inhibitor Activity” value was 1.558 and the “Nes: Protein C Terminus Binding” value was 0.6675. The “Nes: Protein Complex Binding” value was 1.312, the “Nes: Protein Domain Specific Binding” value was 0.8643 and the “Nes: Protein Kinase Activity” value was 0.8772. The “Nes: Protein Kinase Binding” value was 0.7501, the “Nes: Protein Serine Threonine Kinase Activity” value was 0.8269 and the “Nes: Protein Serine Threonine Phosphatase Activity” value was 0.4942. The “Nes: Protein Tyrosine Kinase Activity” value was 0.7818, the “Nes: Protein Tyrosine Phosphatase Activity” value was 1.461 and the “Nes: Purine Nucleotide Binding” value was 0.8873. The “Nes: Purine Ribonucleotide Binding” value was 0.9034, the “Nes: Ras Gtpase Activator Activity” value was 0.9812 and the “Nes: Receptor Signaling Protein Activity” value was 0.7803. The “Nes: Rho Gtpase Activator Activity” value was 0.9664, the “Nes: Ribonuclease Activity” value was 0.4876 and the “Nes: Rna Splicing Factor Activity Transesterification Mechanism” value was 0.9542. The “Nes: S Adenosylmethionine Dependent Methyltransferase Activity” value was 0.9978, the “Nes: Secondary Active Transmembrane Transporter Activity” value was 1.221 and the “Nes: Sequence Specific Dna Binding” value was 0.8244. For the same molecule, the “Nes: Serine Hydrolase Activity” value was 1.672, the “Nes: Serine Type Peptidase Activity” value was 1.65 and the “Nes: Sh3 Sh2 Adaptor Activity” value was 1.235. For the same molecule, the “Nes: Single Stranded Dna Binding” value was 0.9015, the “Nes: Small Conjugating Protein Ligase Activity” value was 0.717 and the “Nes: Small Gtpase Binding” value was 0.9179. For the same molecule, the “Nes: Small Gtpase Regulator Activity” value was 1.109, the “Nes: Small Protein Conjugating Enzyme Activity” value was 0.7314 and the “Nes: Specific Rna Polymerase Ii Transcription Factor Activity” value was 1.539. The “Nes: Structural Constituent Of Cytoskeleton” value was 1.041, the “Nes: Structural Constituent Of Muscle” value was 1.106 and the “Nes: Structural Molecule Activity” value was 0.7432. For the same molecule, the “Nes: Structure Specific Dna Binding” value was 0.7614, the “Nes: Substrate Specific Channel Activity” value was 1.3 and the “Nes: Substrate Specific Transmembrane Transporter Activity” value was 1.04. The “Nes: Substrate Specific Transporter Activity” value was 0.9263, the “Nes: Transcription Activator Activity” value was 0.7812 and the “Nes: Transcription Coactivator Activity” value was 0.5439. The “Nes: Transcription Cofactor Activity” value was 1.217, the “Nes: Transcription Corepressor Activity” value was 1.692 and the “Nes: Transcription Factor Activity” value was 1.217. For the same molecule, the “Nes: Transcription Factor Binding” value was 1.248, the “Nes: Transcription Repressor Activity” value was 1.653 and the “Nes: Transferase Activity Transferring Alkyl Or Aryl Other Than Methyl Groups” value was 0.6606. For the same molecule, the “Nes: Transferase Activity Transferring Glycosyl Groups” value was 0.6701, the “Nes: Transferase Activity Transferring Groups Other Than Amino Acyl Groups” value was 0.6753 and the “Nes: Transferase Activity Transferring One Carbon Groups” value was 0.7951. For the same molecule, the “Nes: Transferase Activity Transferring Sulfur Containing Groups” value was 0.8435, the “Nes: Transition Metal Ion Binding” value was 1.037 and the “Nes: Translation Factor Activity Nucleic Acid Binding” value was 0.81. The “Nes: Translation Initiation Factor Activity” value was 0.4449, the “Nes: Translation Regulator Activity” value was 0.9216 and the “Nes: Transmembrane Receptor Protein Kinase Activity” value was 0.7564. The “Nes: Transmembrane Receptor Protein Tyrosine Kinase Activity” value was 0.9533, the “Nes: Transmembrane Transporter Activity” value was 1.011 and the “Nes: Ubiquitin Protein Ligase Activity” value was 0.7536. The “Nes: Zinc Ion Binding” value was 0.9797.
